Measured values from US9006218B2, “Nucleoside phosphonate salts” (Chimerix Inc., priority 2010, dated 2015).
Counter-ions that a name gives are not always drawn. Like-named read-outs stand apart in the source and are kept apart here.

Legend:
[1] = Cytotoxicity in LNCaP cells; format: cell-based; conditions: human
Description: (§1) Specifically, the anti-XMRV activity assay was completed in LNCaP cells (6 day assay) according to the methods described in PLoS ONE, volume 5 (4), April 2010, e9948, pages 1-7.
(§2) The cytotoxicity of CMX157 in LNCaP cells was also tested.

XMRV = assay: Anti-XMRV activity assay in LNCaP cells (6 day assay); format: cell-based
Text: as §1

[2] = tested on: XMRV collected from 22Rv1 prostate cancer cells; assay: Anti-XMRV cytoprotection assay in PG-4 cells (XTT); format: cell-based, xenotropic murine retrovirus (XMRV)
Description: The test materials were evaluated in PG-4 cells against XMRV collected from the cell-free supernatant of 22Rv1 prostate cancer cells using a complete dose response curve. The experimental details and results are discussed below.
Test materials (CMX157 K^+ salt and Tenofovir) were solubilized at 40 mM and 10 mM in water, respectively, and stored at −20° C. Test materials were evaluated using a 1 μM high test concentration and serially diluted in half-log increments for the in vitro antiviral assay (SOW104-11-01). A second assay was performed (SOW104-11-02) using a 1 μM high test concentration for CMX157, but an increased high test concentration of 100 μM for tenofovir. Ribavirin was purchased from Sigma and used as a positive control compound.
(§3) PG-cells (ATCC# CRL-2032; feline astrocytes) were passaged in T-75 flasks in McCoy's 5A medium supplemented with 10% heat inactivated fetal bovine serum, 2 mmol/L L-glutamine, 100 U/ml penicillin and 100 μg/ml streptomycin prior to use in the antiviral assay. On the day preceding the assay, cells were split 1:2 to assure they were in an exponential growth phase at the time of infection. Total cell and viability quantification were performed using a hemocytometer and Trypan Blue dye exclusion. Cell viability was to be greater than 95% for the cells to be utilized in the assay. The cells were resuspended at 5×10^4 cells per ml (SOW104-11-01) or 1×10^5 cells per mL (SOW104-11-02) in tissue culture medium and added to flat bottom microtiter plates in a volume of 100 μI for overnight incubation at 37° C./5% CO2.
(§4) Serial half-log dilutions were performed. Media was removed from the cell monolayer and 100 μL of 2× concentrations of compound-containing media (DMEM supplemented with 2% FBS, 2 mmol/L L-glutamine, 100 U/ml penicillin and 100 μg/ml streptomycin for SOW104-11-01 or PG-4 cell culture medium for SOW104-11-02) was transferred to the 96-well microtiter plate.
The XMRV virus was collected from the cell-free supernatant of 22Rv1 human prostate cancer cells (ATCC# CRL-2505). A pretitered aliquot of virus was removed from the freezer (−80° C.) and allowed to thaw in a biological safety cabinet. The virus was diluted into 2% FBS assay medium such that the amount of virus added to each well in a volume of 100 μl is the amount determined to yield 85 to 95% cell killing at six days post infection (based on optical density values) for SOW104-11-01. PG-4 cell culture medium was used to dilute virus in a volume of 100 μl is the amount determined to yield 85 to 95% cell killing at six days post infection for SOW104-11-02.
(§5) Inhibition of virus induced cytopathic effects (CPE) was quantified by measuring the reduction of the tetrazolium dye XTT (2,3-bis(2-methoxy-4-nitro-5-sulfophenyl)-5-[(phenylamino)carbonyl]-2H-tetrazoIium hydroxide). XTT in metabolically active cells is metabolized by the mitochondrial enzyme NADPH oxidase to a soluble formazan product. XTT solution was prepared daily as a stock of 1 mg/mL in PBS. Phenazine methosulfate (PMS) solution was prepared at 0.15 mg/mL in PBS and stored in the dark at −20° C. XTT/PMS stock was prepared immediately before use by adding 40 μL of PMS per mL of XTT solution. 50 μL of XTT/PMS was added to each well of the plate and the plate incubated for 4 h at 37° C. The 4 h incubation has been empirically determined to be within the linear response range for XTT dye reduction with the indicated numbers of cells for each assay. Adhesive plate sealers were used in place of the lids, the sealed plate was inverted several times to mix the soluble formazan product and the plate was read at 450 nm (650 nm reference wavelength) with a Molecular Devices SpectraMax Plus 384 96 well plate format spectrophotometer.
Raw data was collected from the Softmax Pro 4.6 software and imported into a Microsoft Excel XLfit4 spreadsheet to analyze (four parameter curve fit analysis) and graph the data. […] The EC50, EC90, TC50 and TC90 are expressed means±standard deviation.

[3] = Cytotoxicity in PG-4 cells (XTT, TC50); format: cell-based, feline; conditions: cat
Description: as §3, §4, §5
(§6) Raw data was collected from the Softmax Pro 4.6 software and imported into a Microsoft Excel XLfit4 spreadsheet to analyze (four parameter curve fit analysis) and graph the data. Using Microsoft Excel, EC50 and EC90 (50% and 90% inhibition of virus replication), TC50 and TC90 (50% and 90% reduction in cell viability) and a therapeutic index (TI, TC50/EC50 and TC90/EC90) are provided. The EC50, EC90, TC50 and TC90 are expressed means±standard deviation. The significant figure is three digits. Raw data for both antiviral activity and toxicity with a graphic representation of the data are provided in a printout summarizing the individual compound activity.

LNCaP cells = assay: Cytotoxicity in LNCaP cells; format: cell-based; conditions: LNCaP cells
Description: as §1, §2

PG-4 cells = assay: Cytotoxicity in PG-4 cells (XTT, TC50); format: cell-based, feline
Description: as §3, §4, §5, §6

[4] = format: physicochemical; conditions: general statement, see Example 2
Description: Stability testing was performed for CMX157 and its salts to investigate the quality of the compound over time under various environments. Accelerated conditions were established using an Isotemp Vacuum Oven set at either 40° C. or 60° C. If high humidity was needed, a saturated solution of sodium chloride created an air state containing about 75% humidity.
For determining the amount of CMX157 present in the samples within the stability study, a reference standard of a known purity was used. […] For analysis, 40 mg of samples and standards are dissolved in 100.0 mL diluent (80 H2O: 20 Methanol: 2 NH4OH). Separation of the drug substance and impurities was achieved using a mobile phase gradient (Table 1) on a Shimadzu A20 HPLC with a Phenomenex Synergi Polar RP 4μ 150×3 mm column. By comparing the areas for the samples at wavelength of 259 nm (kmax) to that of the reference standard, the percentage of CMX157 was determined.

[5] = LNCaP cells, read-out: Cytotoxicity (IC50) LNCaP cells
[6] = unidentified retrovirus, 22Rv1, in Mus musculus, read-out: PG-4/XMRV EC50, assay SOW104-11-02: 1×10^5 cells per mL, PG-4 cell culture medium
[7] = third determination listed in Table 3, run not given
[8] = unidentified retrovirus, 22Rv1, in Mus musculus, read-out: PG-4/XMRV EC50, assay SOW104-11-01: 5×10^4 cells per ml, DMEM 2% FBS
[9] = unidentified retrovirus, 22Rv1, in Mus musculus, read-out: PG-4/XMRV EC50, third determination listed in Table 3, run not stated

Q: Which results are given for `Cc1nnc(C(=O)NC(C)(C)c2nc(C(=O)NCc3ccc(F)cc3)c(O)c(=O)n2C)o1` [Raltegravir]?
A: IC50 [1, 5]: > 100 µM; EC50 (XMRV; 144 h): 0.54 ± 0.57 nM; EC90 (XMRV; 144 h): 3.2 ± 2.9 nM

Q: Which “Therapeutic Index (TC50/EC50)” value ([2]; assay SOW104-11-02) does the source give for `CC(C)(C)NC(=O)[C@@H]1CN(Cc2cccnc2)CCN1C[C@@H](O)C[C@@H](Cc1ccccc1)C(=O)N[C@H]1c2ccccc2C[C@H]1O` [IDV (Indinavir)] here?
A: 2.7

Q: What about the EC50 [2, 6] of the same compound?
A: 800 nM

Q: What about the CC50 ([3]; PG-4 TC50) of the same compound?
A: 2200 nM

Q: Which IC50 [1] does the source give for `CC(C)OC(=O)OCOP(=O)(CO[C@H](C)Cn1cnc2c(N)ncnc21)OCOC(=O)OC(C)C` [Tenofovir disoproxil fumarate, 2,4,6,8-Tetraoxa-5-phosphanonanedioic acid, 5-[[(1R)-2-(6-amino-9H-purin-9-yl)-1-methylethoxy]methyl]-, bis(1-methylethyl)ester, 5-oxide, (2E)-2-butenedioate (1:1)] here?
A: 87.4 µM

Q: And the EC50 (XMRV; 144 h)?
A: 29 ± 26 nM

Q: And the EC90 (XMRV; 144 h)?
A: 210 ± 150 nM

Q: For `C[C@H](Cn1cnc2c(N)ncnc21)OCP(=O)(O)O` [Tenofovir, (R)-9-(2-phosphonylmethoxypropyl)adenine], which EC50 ([2]; assay SOW104-11-01: 5×10^4 cells per ml, DMEM 2% FBS, read-out: PG-4/XMRV EC50) is on record?
A: > 1000 nM

Q: And the “Therapeutic Index (TC50/EC50)” value ([2]; assay SOW104-11-02)?
A: >41.5

Q: What about the EC50 ([2]; assay SOW104-11-02: 1×10^5 cells per mL, PG-4 cell culture medium, read-out: PG-4/XMRV EC50) of the same compound?
A: 2400 nM

Q: And the “Therapeutic Index (TC50/EC50)” value [2, 7]?
A: >38.6

Q: And the EC50 ([2]; third determination listed in Table 3, run not given, read-out: PG-4/XMRV EC50)?
A: 2600 nM

Q: And the IC50 (LNCaP cells)?
A: > 100 µM

Q: What about the CC50 (PG-4 cells; assay SOW104-11-01) of the same compound?
A: > 1 µM

Q: And the CC50 (PG-4 cells; assay SOW104-11-02)?
A: > 100 µM

Q: And the CC50 (PG-4 cells; [7])?
A: > 100 µM

Q: And the EC50 (XMRV)?
A: 4500 ± 3800 nM

Q: What about the EC90 (XMRV) of the same compound?
A: 17400 ± 9000 nM

Q: With `CCCCCCCCCCCCCCCCOCCCOP(=O)(O)CO[C@H](C)Cn1cnc2c(N)ncnc21` [CMX157, 3-(hexadecyloxy)propyl hydrogen ((R)-1-(6-amino-9H-purin 9-yl)propan-2-yloxy)methylphosphonate] as the compound, how does the “EC50 lower than AZT” value ([2]; XMRV in vitro, versus AZT) read?
A: approximately 20 fold

Q: And the “EC50 lower than TFV” value ([2]; XMRV in vitro, versus TFV)?
A: ~800 fold

Q: What about the “Therapeutic Index (TC50/EC50)” value ([2]; assay SOW104-11-01) of the same compound?
A: 10.0

Q: What about the “Therapeutic Index (TC50/EC50)” value ([2]; assay SOW104-11-02) of the same compound?
A: >333.0

Q: What about the “Therapeutic Index (TC50/EC50)” value [2, 7] of the same compound?
A: 97.8

Q: What about the EC50 [2, 8] of the same compound?
A: 40 nM

Q: And the EC50 [2, 6]?
A: 3 nM

Q: What about the EC50 [2, 9] of the same compound?
A: 60 nM

Q: And the “stability in words, free acid versus salts” value [4]?
A: relatively unstable

Q: What about the IC50 [1, 5] of the same compound?
A: > 100 µM

Q: What about the CC50 ([3]; assay SOW104-11-01, read-out: PG-4 TC50) of the same compound?
A: 400 nM

Q: What about the CC50 ([3]; assay SOW104-11-02, read-out: PG-4 TC50) of the same compound?
A: > 1000 nM

Q: And the CC50 ([3]; third determination listed in Table 3, run not given, read-out: PG-4 TC50)?
A: 5900 nM

Q: What about the EC50 (XMRV; 144 h) of the same compound?
A: 3.1 ± 2.1 nM

Q: What about the EC90 (XMRV; 144 h) of the same compound?
A: 37 ± 16 nM

Q: With `Cc1cn([C@H]2C[C@H](N=[N+]=[N-])[C@@H](CO)O2)c(=O)[nH]c1=O` [AZT, 3′-azido-2′,3′-dideoxythymidine] as the compound, how does the EC50 [2, 8] read?
A: 800 nM

Q: And the EC50 [2, 6]?
A: 70 nM

Q: And the EC50 [2, 9]?
A: 600 nM

Q: And the IC50 [1]?
A: > 100 µM

Q: What about the EC50 (XMRV; 144 h) of the same compound?
A: 8.1 ± 11 nM

Q: What about the EC90 (XMRV; 144 h) of the same compound?
A: 55 ± 51 nM

Q: What does the source list for `NC(=O)c1ncn([C@@H]2O[C@H](CO)[C@@H](O)[C@H]2O)n1` [Ribavirin, 1-β-D-ribofuranosyl-1,2,4-triazole-3-carboxamide]?
A: Therapeutic Index (TC50/EC50) ([2]; assay SOW104-11-01): 6.5; EC50 ([2]; unidentified retrovirus, 22Rv1, in Mus musculus, read-out: PG-4/XMRV EC50, Ribavirin in μg/mL, control of SOW104-11-01): 10.1 µg/mL; PG-4 TC50 (PG-4 cells; cat): 65.2 µg/mL
